Measurements: patent US11505547B2, “Compounds” (STEP PHARMA S.A.S., priority 2017, dated 2022)

molecular target: T1, human CTPS1 (Homo sapiens, UniProt P17812); experiment: Human CTPS1 enzyme inhibition, ADP-Glo Max assay; format: biochemical; settings: human full length CTPS1, read-out: CTPS1 (Human CTPS1 Enzyme Inhibition data grouped by potency range, IC50)
T1 construct: purchased Proteros biostructures GmbH
T1 sequence (P17812 1-591): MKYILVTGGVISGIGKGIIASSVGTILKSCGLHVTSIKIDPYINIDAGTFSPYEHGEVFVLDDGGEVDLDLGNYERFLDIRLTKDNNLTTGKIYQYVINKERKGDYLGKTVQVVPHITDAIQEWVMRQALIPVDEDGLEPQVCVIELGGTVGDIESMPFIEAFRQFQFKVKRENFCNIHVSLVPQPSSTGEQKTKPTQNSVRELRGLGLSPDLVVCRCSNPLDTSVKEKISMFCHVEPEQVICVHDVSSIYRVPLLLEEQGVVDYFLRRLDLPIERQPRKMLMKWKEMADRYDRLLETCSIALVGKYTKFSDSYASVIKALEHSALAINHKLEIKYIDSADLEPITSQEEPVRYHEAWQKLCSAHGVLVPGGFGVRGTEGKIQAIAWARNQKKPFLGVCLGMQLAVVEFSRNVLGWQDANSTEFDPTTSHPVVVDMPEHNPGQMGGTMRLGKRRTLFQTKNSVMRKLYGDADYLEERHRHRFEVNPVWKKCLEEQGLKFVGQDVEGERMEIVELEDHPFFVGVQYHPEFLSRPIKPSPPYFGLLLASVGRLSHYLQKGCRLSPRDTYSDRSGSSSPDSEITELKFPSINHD
Protocol: Biological Example 1—Human CTPS1 Enzyme Inhibition
The enzyme inhibitory activities of compounds invented against the target of interest were determined using the ADP-Glo™ Max assay (Promega, UK). Assays for human CTPS1 were performed in 1× assay buffer containing 50 mM Tris, 10 mM MgCl2, 0.01% Tween-20, pH to 8.0 accordingly. Finally, immediately before use, L-cysteine was added to the 1× assay buffer to a final concentration of 2 mM. All reagents are from Sigma-Aldrich unless specified otherwise. Human full length active C-terminal FLAG-Hiss-tag CTPS1 (UniProtKB-P17812, CTPS[1-591]-[…]) was obtained from Proteros biostructures GmbH.
3× human CTPS1 protein was prepared in 1× assay buffer to the final working protein concentration required for the reaction. A 2 uL volume per well of 3× human CTPS1 protein was mixed with 2 uL per well of 3× test compound (compound prepared in 1× assay buffer to an appropriate final 3× compound concentration respective to the concentration response curve designed for the compounds under test) for 10 minutes at 25° C. The enzymatic reaction was then initiated by addition of a 2 uL per well volume of a pre-mixed substrate mix (UltraPure ATP from ADP-Glo™ Max kit (0.31 mM), GTP (0.034 mM), UTP (0.48 mM) and L-glutamine (0.186 mM)) and the mixture was incubated for an appropriate amount of time within the determined linear phase of the reaction at 25° C. under sealed plate conditions with constant agitation at 500 revolutions per minute (rpm). ADP-GIo™ Max reagent was added for 60 minutes (6 uL per well) and subsequently ADP-Glo™ Max development reagent was added for 60 minutes (12 uL per well) prior to signal detection in a microplate reader (EnVision® Multilabel Reader, Perkin Elmer). Following each reagent addition over the course of the assay, assay plates were pulse centrifuged for 30 seconds at 500 rpm.
In all cases, the enzyme converts ATP to ADP and the ADP-Glo™ Max reagent subsequently depletes any remaining endogenous ATP in the reaction system. The ADP-Glo™ Max detection reagent converts the ADP that has been enzymatically produced back into ATP and using ATP as a substrate together with luciferin for the enzyme luciferase, light is generated which produces a detectable luminescence. […] The percentage inhibition produced by each concentration of compound was calculated using the equation shown below: […]
Percentage inhibition was then plotted against compound concentration, and the 50% inhibitory concentration (IC50) was determined from the resultant concentration-response curve.

IC50	SMILES
100 to 1000 nM	CCC(NC(=O)c1ccc(-c2cccnc2)cc1)c1csc(NS(=O)(=O)C2CC2)n1 (racemic) [Example R61, N-(1-(2-(cyclopropanesulfonamido)thiazol-4-yl)propyl)-4-(pyridin-3-yl)benzamide]
100 to 1000 nM	CCOc1cncc(-c2ccc(C(=O)NC(CC)c3csc(NS(=O)(=O)C4CC4)n3)c(F)c2)n1 (racemic) [Example R62, N-(1-(2-(cyclopropanesulfonamido)thiazol-4-yl)propyl)-4-(6-ethoxypyrazin-2-yl)-2-fluorobenzamide]
100 to 1000 nM	CCC(NC(=O)c1ccc(-c2cncc(OC(C)C)n2)cc1F)c1csc(NS(=O)(=O)C2CC2)n1 (racemic) [Example R64, N-(1-(2-(cyclopropanesulfonamido)thiazol-4-yl)propyl)-2-fluoro-4-(6-isopropoxypyrazin-2-yl)benzamide]
100 to 1000 nM	CCC(NC(=O)c1ccc(-c2cncc(C)n2)cc1)c1csc(NS(=O)(=O)C2CC2)n1 (racemic) [Example R66, N-(1-(2-(cyclopropanesulfonamido)thiazol-4-yl)propyl)-4-(6-methylpyrazin-2-yl)benzamide]
100 to 1000 nM	CCC(NC(=O)c1ccc(-c2cnccn2)cc1)c1csc(NS(=O)(=O)C2CC2)n1 (racemic) [Example R67, N-(1-(2-(cyclopropanesulfonamido)thiazol-4-yl)propyl)-4-(pyrazin-2-yl)benzamide]
< 100 nM	CCC(NC(=O)c1ccc(-c2cncc(C(F)(F)F)c2)cc1)c1csc(NS(=O)(=O)C2CC2)n1 (single isomer, unassigned) [Example R4, N-(1-(2-(cyclopropanesulfonamido)thiazol-4-yl)propyl)-4-(5-(trifluoromethyl)pyridin-3-yl)benzamide]
< 100 nM	O=C(NCc1csc(NS(=O)(=O)C2CC2)n1)c1ccc(-c2cncc(C(F)(F)F)n2)cc1 [Example R12, N-((2-(cyclopropanesulfonamido)thiazol-4-yl)methyl)-4-(6-(trifluoromethyl)pyrazin-2-yl)benzamide]
< 100 nM	CCOc1cncc(-c2ccc(C(=O)NCc3csc(NS(=O)(=O)C4CC4)n3)cc2)n1 [Example R14, N-((2-(cyclopropanesulfonamido)thiazol-4-yl)methyl)-4-(6-ethoxypyrazin-2-yl)benzamide]

More lines, now with the values behind:

SMILES	IC50
CCC(NC(=O)c1ccc(-c2cncc(C(F)(F)F)c2)cc1)c1csc(NS(=O)(=O)C2CC2)n1 (racemic) [Example R2, N-(1-(2-(cyclopropanesulfonamido)thiazol-4-yl)propyl)-4-(5-(trifluoromethyl)pyridin-3-yl)benzamide]	100 to 1000 nM
CCC(NC(=O)c1ccc(-c2cncc(F)c2)cc1)c1csc(NS(=O)(=O)C2CC2)n1 (racemic) [Example R59, N-(1-(2-(cyclopropanesulfonamido)thiazol-4-yl)propyl)-4-(5-fluoropyridin-3-yl)benzamide]	100 to 1000 nM
CCC(NC(=O)c1ccc(-c2cncc(C)c2)cc1)c1csc(NS(=O)(=O)C2CC2)n1 (racemic) [Example R60, N-(1-(2-(cyclopropanesulfonamido)thiazol-4-yl)propyl)-4-(5-methylpyridin-3-yl)benzamide]	100 to 1000 nM
CCOc1cncc(-c2ccc(C(=O)N(C)C(CC)c3csc(NS(=O)(=O)C4CC4)n3)c(F)c2)n1 (racemic) [Example R63, N-(1-(2-(cyclopropanesulfonamido)thiazol-4-yl)propyl)-4-(6-ethoxypyrazin-2-yl)-2-fluoro-N-methylbenzamide]	100 to 1000 nM
CCC(NC(=O)c1ccc(-c2cncc(Cl)n2)cc1)c1csc(NS(=O)(=O)C2CC2)n1 (racemic) [Example R65, 4-(6-chloropyrazin-2-yl)-N-(1-(2-(cyclopropanesulfonamido)thiazol-4-yl)propyl)benzamide]	< 100 nM
CCC(NC(=O)c1ccc(-c2cncc(C(F)(F)F)c2)cc1)c1csc(NS(=O)(=O)C2CC2)n1 (single isomer, unassigned) [Example R3, N-(1-(2-(cyclopropanesulfonamido)thiazol-4-yl)propyl)-4-(5-(trifluoromethyl)pyridin-3-yl)benzamide]	100 to 1000 nM
CCC(NC(=O)c1ccc(-c2cncc(F)c2)cc1)c1csc(NS(=O)(=O)C2CC2)n1 (single isomer, unassigned) [Example R68, N-(1-(2-(cyclopropanesulfonamido)thiazol-4-yl)propyl)-4-(5-fluoropyridin-3-yl)benzamide]	1000 to 10000 nM
CCC(NC(=O)c1ccc(-c2cncc(F)c2)cc1)c1csc(NS(=O)(=O)C2CC2)n1 (single isomer, unassigned) [Example R69, N-(1-(2-(cyclopropanesulfonamido)thiazol-4-yl)propyl)-4-(5-fluoropyridin-3-yl)benzamide]	< 100 nM
CCOc1cncc(-c2ccc(C(=O)NC(CC)c3csc(NS(=O)(=O)C4CC4)n3)c(F)c2)n1 (single isomer, unassigned) [Example R70, N-(1-(2-(cyclopropanesulfonamido)thiazol-4-yl)propyl)-4-(6-ethoxypyrazin-2-yl)-2-fluorobenzamide]	100 to 1000 nM
O=C(NCc1csc(NS(=O)(=O)C2CC2)n1)c1ccc(-c2cccnc2)cc1 [Example R1, N-((2-(cyclopropanesulfonamido)thiazol-4-yl)methyl)-4-(pyridin-3-yl)benzamide]	100 to 1000 nM
CCC(NC(=O)c1ccc(-c2cncc(C(F)(F)F)n2)cc1)c1csc(NS(=O)(=O)C2CC2)n1 (centres unmarked) [Example R5, N-(1-(2-(cyclopropanesulfonamido)thiazol-4-yl)propyl)-4-(6-(trifluoromethyl)pyrazin-2-yl)benzamide]	< 100 nM
CCOc1cncc(-c2ccc(C(=O)NC(C)(C)c3csc(NS(=O)(=O)C4CC4)n3)c(OC)c2)n1 [Example R7, N-(2-(2-(cyclopropanesulfonamido)thiazol-4-yl)propan-2-yl)-4-(6-ethoxypyrazin-2-yl)-2-methoxybenzamide]	100 to 1000 nM
O=C(NCc1csc(NS(=O)(=O)C2CC2)n1)c1ccc(-c2ccccc2)cn1 [Example R8, N-((2-(cyclopropanesulfonamido)thiazol-4-yl)methyl)-5-phenylpicolinamide]	1000 to 10000 nM
O=C(NCc1csc(NS(=O)(=O)C2CC2)n1)c1ccc(-c2ccccc2)cc1 [Example R9, N-((2-(cyclopropanesulfonamido)thiazol-4-yl)methyl)-[1,1′-biphenyl]-4-carboxamide]	1000 to 10000 nM
O=C(NCc1csc(NS(=O)(=O)C2CC2)n1)c1ccc(-c2cncc(C(F)(F)F)n2)cc1F [Example R10, N-((2-(cyclopropanesulfonamido)thiazol-4-yl)methyl)-2-fluoro-4-(6-(trifluoromethyl)pyrazin-2-yl)benzamide]	< 100 nM
CCOc1cncc(-c2ccc(C(=O)NCc3csc(NS(=O)(=O)C4CC4)n3)c(F)c2)n1 [Example R11, N-((2-(cyclopropanesuIfonamido)thiazol-4-yl)methyl)-4-(6-ethoxypyrazin-2-yl)-2-fluorobenzamide]	< 100 nM
CC(C)Oc1cncc(-c2ccc(C(=O)NCc3csc(NS(=O)(=O)C4CC4)n3)cc2)n1 [Example R13, N-((2-(cyclopropanesulfonamido)thiazol-4-yl)methyl)-4-(6-isopropoxypyrazin-2-yl)benzamide]	< 100 nM
CCC(CC)(NC(=O)c1ccc(-c2cncc(C(F)(F)F)c2)cc1)c1csc(NS(=O)(=O)C2CC2)n1 [Example R15, N-(3-(2-(cyclopropanesulfonamido)thiazol-4-yl)pentan-3-yl)-4-(5-(trifluoromethyl)pyridin-3-yl)benzamide]	< 100 nM
